The supplement of paper PMC8882468

How the values were obtained:
Test in all cases: CTG-3D luminescence at 96 h relative to day-0 seeding control (ratio to day 0); higher = more growth / less cytotoxicity; PDxO 3D drug screen, 96 h, CTG-3D normalised to day-0 seeding control.
HCI-011.E2 = tested on: HCI-011.E2 (organoid from an ER-positive breast cancer xenograft)
HCI-008 = tested on: HCI-008 (organoid from a HER2-enriched breast cancer xenograft)
HCI-027 = tested on: HCI-027 (organoid from a triple-negative breast cancer xenograft)
HCI-017.E2 = tested on: HCI-017.E2 (organoid from an ER-positive breast cancer xenograft)
MDA-MB-231 = tested on: MDA-MB-231
HCI-015 = tested on: HCI-015 (organoid from a triple-negative breast cancer xenograft)
HCI-005.E2 = tested on: HCI-005.E2 (organoid from a breast cancer xenograft with a HER2-positive history)

C[C@]12CC[C@@H]3c4ccc(O)cc4C[C@@H](CCCCCCCCC[S+]([O-])CCCC(F)(F)C(F)(F)F)[C@H]3[C@@H]1CC[C@@H]2O (stereo partly specified) [fulvestrant]
CTG-3D luminescence at 96 h
Details	12.5 pM	0.00025 µM	0.005 µM	0.1 µM	1 µM	10 µM	100 µM	625 fM
HCI-005.E2	1.53	2.5	1.79	2.34	1.61	1.5	1.34	1.72
HCI-011.E2	1.73	1.6	1.24	1.51	1.37	1.82	1.73	1.62
HCI-017.E2	1.94	2.16	2.05	1.92	1.53	1.4	1.55	1.88
MDA-MB-231	4.61	4.53	4.7	4.58	4.8	4.81	5.18	4.69

CTG-3D luminescence at 96 h
Details	12.5 pM	0.00025 µM	0.005 µM	0.1 µM	1 µM	10 µM	100 µM	625 fM
HCI-008, days in culture: 228	1.6	1.76	1.34	1.68	1.62	1.36	1.29	1.89
HCI-008, days in culture: 244	1.4	1.74	1.94	2.15	1.59	1.9	1.66	2.27
HCI-011.E2, days in culture: 74	2.77	2.62	1.87	2.1	2.1	2.2	2.02	2.9
HCI-015, days in culture: 172	2.41	1.73	2.32	0.904	2.25	1.34	1.39	3.06
HCI-015, days in culture: 191	1.78	1.35	1.29	1.06	1.56	1.23	1.35	1.56
HCI-015, days in culture: 218	2.19	1.3	2.13	1.72	1.77	2.1	1.76	2.24
HCI-017.E2, days in culture: 85	2.84	3.05	2.96	2.18	1.78	1.41	1.89	2.52
HCI-027, days in culture: 176	2.05	1.67	2.89	2.3	2.57	1.77	2.18	2.36
HCI-027, days in culture: 194	1.74	1.82	1.53	1.78	2.32	2.05	2.15	1.71
HCI-027, days in culture: 201	2.63	2.77	2.87	2.64	2.56	2.01	1.85	2.4

CC1(C)CCC(c2ccc(Cl)cc2)=C(CN2CCN(c3ccc(C(=O)NS(=O)(=O)c4ccc(N[C@H](CCN5CCOCC5)CSc5ccccc5)c(S(=O)(=O)C(F)(F)F)c4)cc3)CC2)C1 [navitoclax]
CTG-3D luminescence at 96 h
Details	12.5 pM	0.00025 µM	0.005 µM	0.1 µM	1 µM	10 µM	100 µM	625 fM
HCI-005.E2	1.5	1.46	1.66	1.7	1.24	1.21	0.0085	1.6
HCI-011.E2	1.62	1.82	1.33	1.72	1.52	1.84	0.144	1.8
HCI-017.E2	1.6	2	1.8	1.81	1.78	1.7	0.043	1.812
MDA-MB-231	4.52	4.44	4.56	4.28	3.8	1.42	0.000199	4.6

CTG-3D luminescence at 96 h
Details	12.5 pM	0.00025 µM	0.005 µM	0.1 µM	1 µM	10 µM	100 µM	625 fM
HCI-008, days in culture: 228	1.53	1.62	1.55	1.61	1.2	0.854	0.0594	1.77
HCI-008, days in culture: 244	1.31	1.99	1.94	2.06	1.57	0.824	0.0293	2.52
HCI-011.E2, days in culture: 74	2.04	2.51	2.16	2.38	2.09	2.86	0.137	1.84
HCI-015, days in culture: 172	2.17	2.01	2.2	1.82	1.99	1.61	0.429	2.6
HCI-015, days in culture: 191	2.56	1.7	2	1.59	1.87	1.01	0.399	1.61
HCI-015, days in culture: 218	1.72	1.53	1.74	1.59	1.64	1.63	-0.117	1.97
HCI-017.E2, days in culture: 85	2.05	1.26	2.18	1.93	1.57	1.98	0.14	1.51
HCI-027, days in culture: 176	2.47	2.17	3.4	1.89	2.39	1.32	-0.194	3.28
HCI-027, days in culture: 194	2.18	1.78	2.01	2.17	2.24	1.75	0.198	2.27
HCI-027, days in culture: 201	3.21	2.62	3.27	3.18	2.73	1.5	0.0321	2.76

CCN(c1cc(C#CCN2CCOCC2)cc(C(=O)NCc2c(C)cc(C)[nH]c2=O)c1C)[C@H]1CC[C@H](N(C)CCOC)CC1
CTG-3D luminescence at 96 h
Details	12.5 pM	0.00025 µM	0.005 µM	0.1 µM	1 µM	10 µM	100 µM	625 fM
HCI-005.E2	1.1	1.52	1.38	1.82	1.14	1.22	1.29	1.34
HCI-011.E2	1.4	1.39	1.48	1.74	1.74	2.09	2.03	1.63
HCI-017.E2	1.57	1.65	1.91	1.81	1.72	2.01	1.5	2.01
MDA-MB-231	4.49	4.37	4.44	4.29	4.31	4.37	4.39	4.51

CTG-3D luminescence at 96 h
Details	12.5 pM	0.00025 µM	0.005 µM	0.1 µM	1 µM	10 µM	100 µM	625 fM
HCI-008, days in culture: 228	1.54	1.571	1.283	1.61	1.59	1.63	1.43	1.77
HCI-008, days in culture: 244	1.38	2.13	1.81	2.04	1.7	2.31	2.04	2.47
HCI-011.E2, days in culture: 74	1.76	2.24	2.14	1.77	1.99	3.31	2.8	1.61
HCI-015, days in culture: 172	2.25	1.77	2.86	1.78	2.2	1.94	1.91	2.23
HCI-015, days in culture: 191	2.6	1.59	1.92	1.44	2.09	1.44	1.13	1.91
HCI-015, days in culture: 218	1.78	1.4	2	1.49	1.67	2.02	0.907	2.07
HCI-017.E2, days in culture: 85	1.88	2.36	2.01	2.07	1.45	1.61	1.9	1.77
HCI-027, days in culture: 176	2.06	2.13	3.35	1.65	1.87	2.06	1.32	2.38
HCI-027, days in culture: 194	2.66	1.86	2.09	2.1	2.03	2.21	2.02	1.98
HCI-027, days in culture: 201	3.28	3.2	2.92	2.89	3.09	2.64	2.22	2.42
